Patent US20190185544A1, “COMPOSITIONS AND METHODS OF MODULATING ABETA PROTEIN” (University of South Florida, priority 2016, published 2019)
Entries after “also recorded” stand apart in the source; their conditions may differ.

Experiments:
Assay type in all cases: cell-based, Chinese hamster
[1] = tested on: CHO/APPwt cells; experiment: Aβ production in CHO/APPwt cells, treatment alone (Aβ1-40, 42 ELISA, 82E1 WB); conditions: for Aβ production (Aβ1-40, 42): serum-free medium, 2 h (ELISA) or 16 h (WB)
Procedure: Chinese hamster ovary (CHO) cells overexpressing human wild-type amyloid precursor protein (APPwt) (CHO/APPwt cells) were cultured in 96-well plate at about 2×10^4/well in Dulbecco's modified Eagle's medium (DMEM) with 10% fetal bovine serum (FBS), 1 mM sodium pyruvate and 100 U/mL of penicillin/streptomycin for 18 hours.
CHO/APPwt cells were cultured in 96-well plate (about 2×10^4/well) in serum-free medium and treated with ApoE LDLR, FlagApoE LDLR (SEQ ID NO.: 1 with an N-terminal FLAG tag), BiotinApo LDLR (SEQ ID NO.: 1 with an N-terminal Biotin) and 3 lysinesApoE LDLR (3KApoE LDLR (SEQ ID NO.: 2)) at indicated doses for about 2 hours.
The conditioned media and cell lysates were prepared, and subjected to Aβ ELISA and protein assay.
CHO cells overexpressing human wild-type APP (CHO/APPwt) cells were cultured in 96-well plate at 2×10^4/well in Dulbecco's modified Eagle's medium (DMEM) with 10% fetal bovine serum (FBS), 1 mM sodium pyruvate and 100 U/mL of penicillin/streptomycin for 18 hours. […] 82E1 WB analyses as shown below the Aβ ELISA result histograms. The Aβ ELISA results are representative of three independent experiments with each condition triplicated and presented as mean±SD.
(residues 133-152, SEQ ID NO: 1)] as indicated for 2 and 16 hours (h). The conditioned media and cell lysates were analyzed by Aβ1-40, 42 ELISA (FIG. 10A), 82E1 WB analysis (FIG. 10B) and protein assay, respectively. In addition, (FIG. 10C) CHO/APPwt cells were cultured in 96-well plate (2×10^4/well) in serum-free DMEM and treated with FlagApoE-LBDP, BiotinApoE-LBDP and 3 lysineApoE-LBDP (3KApoE-LBDP) in comparing to ApoE-LBDP at indicated doses for 2 hours (h). […] (SEQ ID NO: 2); […]-[…] (SEQ ID NO: 10); Biotin-[…] (SEQ ID NO: 1 with an N-Terminal Biotin).
CHO cells engineered to express human wild-type APP (CHO/APPwt) or Swedish mutant APP (CHO/APPswe) were obtained. These cells were cultured in 96 or 24 well plates at 4×10^4 or 2×10^5 cells/well, respectively, in Dulbecco's modified Eagle's medium (DMEM) with 10% fetal bovine serum, 1 mM sodium pyruvate and 100 U/mL of penicillin/streptomycin (Invitrogen, Thermo Fisher Scientific). In addition, murine N2a cells transfected with APPwt (N2a/APPwt were obtained), SH-SY5Y cells transfected with APPswe and wild-type SH-SY5Y cells (ATCC, Manassas, Va.) were cultured as previously described^42. Primary hN2TM human neurons (Neuromics, Edina, Minn.) were cultured in hN2TM human neuron culture media and primary HCN2 human neurons (ATCC) were cultured in DMEM with 4 mM L-glutamine adjusted to contain 1.5 g/L sodium bicarbonate, 4.5 g/L glucose, fetal bovine serum (10%).
Aβ1-40, 42 and sAPPα from cell and brain homogenates were detected by Aβ1-40, 42 and sAPPα ELISA kits (IBL-America), strictly following the manufacturer's instructions^43,44.
WB analyses were performed as previously described^43,44. Briefly, 10% bicine/tris gel containing 8 M urea was used for separation of Aβ1-40, 42 species from brain homogenates or CHO cell conditioned media or lysates, followed by transfer to 0.2 μm pore-size nitrocellulose membrane (Bio-Rad, Hercules, Calif.). The membrane was boiled in PBS for 3 to 5 min before blocking to enhance sensitivity and then incubated with 82E1. For all other proteins detected by WB, 10% tris-SDS gels were used. Densitometry analysis was performed as previously described using a FluorS Multiimager with Quantity One™ software 43.

[2] = tested on: CHO/APPdE1 cells; experiment: Aβ production in CHO cells expressing APP695 lacking the N-terminal E1 region; conditions: peptides 10 μM or apoE 10 μg/mL, 4 h; compared with CHO/APPwt
Text: CHO cells were also transfected with pCMV6 APP695 or pCMV6 E1 depleted APP695, yielding cells expressing wild type APP695 (CHO/APPwt) or truncated APP695 lacking the N-terminal E1 region (CHO/APPdE1). […] Diagram indicates important domains identified in APP, including N-terminal E1 region (top panel), and APPwt and APPdE1 proteins in cell lysates and conditioned media derived from the transfected CHO cells as determined by WB using 6E10 (middle panels). […] ELISA results are representative of three independent experiments with each condition triplicated and presented as mean±s.d. of Aβs (μg/mg of total intracellular protein). Asterisk indicates P<0.05 compared with the corresponding absence of 22C11, 6H3B5 or 6KApoEp, or with corresponding CHO/APPwt cells, as determined by one-way ANOVA.
Therefore, apoE and ApoEp mediates and 6KApoEp reduces Aβ production by binding to the N-terminal E1 region of APP, but this region of APP is not required for spontaneous Aβ release in the absence of apoE.

[3] = tested on: p38 MAPK; experiment: p38 MAPK phosphorylation in CHO/APPwt cell lysates (WB); conditions: peptides 10 μM or apoE 10 μg/mL, 0 to 180 min

| Substance | sAPPα secretion [1] | Aβ production (Aβ1-40, 42) [1] | Aβ production in CHO/APPdE1 cells [2] | p38 MAPK phosphorylation [3] |
| --- | --- | --- | --- | --- |
| ApoE3: human recombinant apolipoprotein E3 protein (BioVision) | decreased sAPPα secretion | markedly promote amyloid β protein (Aβ) production | markedly less Aβ production compared with CHO/APPwt cells | activated both p44/42 and p38 MAPK phosphorylation |
| ApoE4: human recombinant apolipoprotein E4 protein (BioVision) | decreased sAPPα secretion | increased Aβ1-40, 42 production; also recorded: markedly promote amyloid β protein (Aβ) production | markedly less Aβ production compared with CHO/APPwt cells | activated both p44/42 and p38 MAPK phosphorylation |
